The target in assay [1] is T1, hCNT3 (Homo sapiens, UniProt Q9HAS3).
T1 sequence (Q9HAS3 1-691): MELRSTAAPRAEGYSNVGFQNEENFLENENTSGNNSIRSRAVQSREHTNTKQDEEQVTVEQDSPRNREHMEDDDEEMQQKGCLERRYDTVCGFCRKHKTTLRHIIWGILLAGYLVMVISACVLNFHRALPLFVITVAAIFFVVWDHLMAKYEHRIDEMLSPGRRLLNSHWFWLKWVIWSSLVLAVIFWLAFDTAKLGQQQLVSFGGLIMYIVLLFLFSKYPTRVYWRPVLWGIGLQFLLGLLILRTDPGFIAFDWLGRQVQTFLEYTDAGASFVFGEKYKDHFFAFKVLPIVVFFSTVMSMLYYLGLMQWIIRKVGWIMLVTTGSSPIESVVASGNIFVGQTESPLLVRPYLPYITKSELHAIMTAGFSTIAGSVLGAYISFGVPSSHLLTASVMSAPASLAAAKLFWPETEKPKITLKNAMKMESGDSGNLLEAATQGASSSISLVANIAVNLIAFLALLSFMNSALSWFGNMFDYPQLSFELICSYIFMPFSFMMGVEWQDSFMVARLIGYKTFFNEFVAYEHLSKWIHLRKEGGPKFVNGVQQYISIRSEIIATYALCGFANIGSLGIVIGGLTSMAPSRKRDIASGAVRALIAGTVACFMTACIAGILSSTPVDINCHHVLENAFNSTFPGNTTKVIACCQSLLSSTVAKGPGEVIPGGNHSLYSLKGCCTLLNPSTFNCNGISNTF
In words: [3H]ETV uptake in hCNT3 transfected cells. To be noted: 5 min, 37°C.

The target in assay [2] is T1, hCNT3. The experiment in a line: Inhibition of [3H]uridine uptake in hCNT3 transfected MDCK II cells. More on the design: host or cells: MDCK II cells, transient transfection. Format: in vitro ADME. Particulars: 1 μM [3H]uridine, MDCK II cells transiently transfected with hCNT3, 2 min, 37°C; read-out: IC50, inhibition of hCNT3 mediated transport. The procedure: Inhibitory transport assays were carried out in 24-well plates as described previously ([Mandikova et al., 2013]). Transport assays in HeLa cells transiently transfected with the hOAT1 expression construct were performed 48 h after transfection. Transport assays in MDCK II cells transiently transfected with hOCT2, hCNT2 or hCNT3 were performed 24 h after transfection. The cultivation medium was removed and the cells were washed with transport solution and preincubated for 10 min at 37°C. The standard radiolabeled substrate or tested radioactive antiviral substance dissolved in transport solution was added to the cells and incubated for 2 min. [^3H]PAH (1 μM) was used as a prototypical substrate for OATs, [^3H]MPP^+ (1 μM) for OCTs and [^3H]uridine (1 μM) for CNTs. […] After the designated time period, the incubation was stopped by washing the cells twice with ice-cold solution containing 137 mM NaCl and 10 mM HEPES, pH 7.4. The cells were disintegrated with 0.1 mL of Triton X 0.5% in 100 mM NaOH for 1 h.
IC50 values were calculated using non-linear regression analysis using GraphPad Prism software (version 6).

In assay [3] the target is T2, hCNT2 (Homo sapiens, UniProt O43868).
T2 sequence (O43868 1-658): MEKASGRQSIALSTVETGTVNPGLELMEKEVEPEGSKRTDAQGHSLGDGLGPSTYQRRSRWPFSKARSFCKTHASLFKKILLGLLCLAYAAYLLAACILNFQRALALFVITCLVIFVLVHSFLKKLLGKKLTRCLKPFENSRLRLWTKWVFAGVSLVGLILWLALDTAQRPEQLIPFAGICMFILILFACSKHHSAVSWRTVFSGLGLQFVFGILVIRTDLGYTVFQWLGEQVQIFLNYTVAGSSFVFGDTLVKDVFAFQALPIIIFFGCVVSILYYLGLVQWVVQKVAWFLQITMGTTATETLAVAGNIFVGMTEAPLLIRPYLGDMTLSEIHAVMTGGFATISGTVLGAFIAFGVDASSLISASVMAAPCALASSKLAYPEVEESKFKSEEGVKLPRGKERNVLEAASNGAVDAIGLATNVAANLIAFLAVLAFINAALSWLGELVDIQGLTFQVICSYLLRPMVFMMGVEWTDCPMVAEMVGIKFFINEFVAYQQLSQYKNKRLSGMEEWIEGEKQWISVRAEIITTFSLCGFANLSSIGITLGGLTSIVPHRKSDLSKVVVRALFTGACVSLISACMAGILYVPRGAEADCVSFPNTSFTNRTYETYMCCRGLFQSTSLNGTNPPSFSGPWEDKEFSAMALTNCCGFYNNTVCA
The experiment in a line: [3H]ETV uptake in hCNT2 transfected cells. To be noted: 5 min, 37°C.

Assay [4] deals with T3, hOAT1 (Homo sapiens, UniProt Q4U2R8).
T3 sequence (Q4U2R8 1-563): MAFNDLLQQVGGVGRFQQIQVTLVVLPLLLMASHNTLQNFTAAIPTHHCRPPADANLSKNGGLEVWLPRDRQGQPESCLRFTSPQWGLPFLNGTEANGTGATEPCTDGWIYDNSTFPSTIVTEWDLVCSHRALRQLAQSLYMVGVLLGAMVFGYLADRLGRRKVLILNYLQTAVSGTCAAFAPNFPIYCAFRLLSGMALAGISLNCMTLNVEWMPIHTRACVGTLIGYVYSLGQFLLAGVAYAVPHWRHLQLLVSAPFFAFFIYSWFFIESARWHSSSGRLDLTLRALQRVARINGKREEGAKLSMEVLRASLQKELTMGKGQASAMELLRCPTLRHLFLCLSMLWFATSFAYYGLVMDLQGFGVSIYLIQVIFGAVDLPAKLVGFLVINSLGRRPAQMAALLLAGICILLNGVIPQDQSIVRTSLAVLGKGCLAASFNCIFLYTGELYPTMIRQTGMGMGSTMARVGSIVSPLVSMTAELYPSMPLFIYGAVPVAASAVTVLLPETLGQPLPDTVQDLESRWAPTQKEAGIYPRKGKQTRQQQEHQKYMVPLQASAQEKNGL
The experiment in a line: [3H]ETV uptake in hOAT1 transfected cells. It counts as in vitro ADME. More on the design: host or cells: HeLa cells, transient transfection. To be noted: 5 min, 37°C.

Here are results for one compound from paper PMC4700268 (Frontiers in Pharmacology, 2016).

pIC50: −log10 of the molar value.

On to `C=C1[C@H](CO)[C@@H](O)C[C@@H]1n1cnc2c(=O)[nH]c(N)nc21` [ETV, Entecavir], for which the “Vmax of [3H]ETV uptake by hCNT3” value in assay [1] was determined as 45.84 nmol/mg protein/5 min. In addition, the negative logarithm of the IC50 (pIC50) in assay [2] was 3.56. Moreover, in assay [3], the “Vmax of [3H]ETV uptake by hCNT2” value worked out at 68.88 nmol/mg protein/5 min. The “Vmax of [3H]ETV uptake by hOAT1” value in assay [4] is 0.91 nmol/mg protein/5 min.

As a reminder, the pIC50 is the negative decadic logarithm of the IC50, by convention in mol/L.
